Assay results from patent US20180355441A1, “VISUAL DETECTION OF PLATINATED DNA LESIONS FROM A CLICKABLE CISPLATIN PROBE USED AS DIAGNOSTIC TOOL OR TO IDENTIFY SYNERGISTIC TREATMENTS” (CENTRE NATIONAL DE LA RECHERCHE SCIENTIFIQUE, priority 2015, published 2018).

What was measured:
histone H4 = assay: Western blot of histone H4 acetylation; type: cell-based, human; conditions: U2OS cells
Protocol: Cells were washed once with PBS and lysed in lysis buffer (50 mM Tris-HCl, pH 7.5, 150 mM NaCl, 1 mM EDTA, 1% Triton X-100). For Western blot, samples were briefly sonicated followed by boiling in SDS sample buffer and separated by SDS-PAGE gels. Proteins were transferred to nitrocellulose membrane (GE Healthcare) and western blotting was performed following standard protocols. Western blots were detected by chemiluminescence (GE Healthcare Amersham ECL prime) using a Bio-Rad Molecular Imager ChemiDoc XRS+ system. The primary antibodies used for western blotting: H2AX (Millipore; #07-627), γH2AX [pSer139] (Novus Biologicals; NB100-384), histone H4 (Abcam; ab7311), acetyl-histone H4 (Lys16) (Cell Signaling; #8804), acetyl-histone H4 (Millipore; #06-866), PCNA (Santa Cruz Biotech; PC10), RAD18 (Cell Signaling; #21000), PARP (Cell Signaling; #9542), β-tubulin (Abcam; ab6046). Secondary antibodies used were: anti-rabbit IgG, HRP-linked (Cell Signaling; #7074), anti-mouse IgG, HRP-linked (Cell Signaling; #7076).

DNA-Pt in U2OS cells = assay: Screen of small molecule modulators of genome targeting using ACP staining as readout; type: cell-based, human; conditions: U2OS cells co-treated with small molecule and ACP, confocal microscopy
Protocol: Labeled DNA-Pt were analyzed by confocal microscopy.
[…], ACP, APPOA and CP were prepared in the laboratory as described in the synthesis section of the methods. Suberoylanilide hydroxamic acid (SAHA) was purchased from Sigma and cisplatin was purchased from Tocris.
Data were analyzed with ImagaJ.

U2OS cells = assay: Cell viability assay (CellTiter-Blue), anti-proliferative activity; type: cell-based, human; conditions: 72 h treatment
Protocol: Cell viability assays were carried out by plating U2OS cells (2,000 cells per well) in 96-well plates.

[1] = tested on: 26-mer hairpin-forming DNA oligonucleotide containing a single 1,2-GG dinucleotide; conditions: 37° C., 18 h
Protocol: The reaction of hp with ACP was performed at 37° C. for 18 h. Unbound ACP and salts were removed using a Sephadex G-25 Medium size exclusion resin (GE Healthcare) on laboratory prepared spin columns (BioRad).

[2] = tested on: genomic DNA from U2OS cells; conditions: compared to equal amounts of DNA collected from CP-treated cells; 3 h treatment
Excerpt: Samples were air dried and visualized using a Bio-Rad Molecular Imager ChemiDoc XRS+ system.

Compound	Histone H4 acetylation (histone H4)	Effect on ACP staining (DNA-Pt) by visual inspection (DNA-Pt in U2OS cells)	Anti-proliferative activity against U2OS cells (U2OS cells)	Reactivity towards DNA and labeling by alkyne-containing tag in vitro [1]	Fluorescence of labeled genomic DNA (dot blot) [2]
O=C(CCCCCCC(=O)Nc1ccccc1)NO [SAHA, Suberoylanilide hydroxamic acid]	induced histone hyperacetylation of histone H4	led to the occurrence of foci of DNA-Pt	–	–	–
Nc1ncn([C@@H]2O[C@H](CO)[C@@H](O)[C@H]2O)c(=O)n1 [Compound 5-Aza, 5-Azacytidine]	–	led to the occurrence of foci of DNA-Pt	–	–	–
N.N.[Cl][Pt][Cl] [cisplatin]	–	–	exhibited anti-proliferative properties	–	–
2-aminomethylpyridine(dichloro)platinum(II) azide [ACP]	–	–	exhibited anti-proliferative properties	can chemoselectively cross react with DNA and be labeled by an alkyne-containing tag	higher level of fluorescence
